From patent publication US20250346633A1, “MACOLACINS AND METHODS OF USE THEREOF” (priority 2021, published 2025) come the findings set out here.

Converted amounts (≈) assume the structure as drawn. Where two headings read alike, the source gives them in different places. Bridge positions count the residues as written; N and C are the ends. Square brackets hold non-standard residues; d marks the D form. Peptide text beside a SMILES is read from it. * marks the point of attachment. Benzoyl(4-Ph) = O=C(c1ccc(-c2ccccc2)cc1)*; X1 = CC[C@H](C)CCCCC(=O)*; Dab = NCC[C@H](N)C(=O)O A value given as a limit tells only on which side of the number the result lay.

In series [1] the test system is S. typhimurium 0635 (mcr-1 clinical isolate). As to conditions: colistin R.
Series [2] deals with E. faecium Com15. As to conditions: colistin R, n=2.
The subject of series [3] is E. cloacae ATCC13047 (ΔphoP/Q + phoP/Q). As to conditions: colistin R.
Experimental: (§1) MIC assays were conducted following the protocol recommended by the Clinical and Laboratory Standards Institute (Testing E C et al., 2016, EUCAST: Växjö; Wikler M A et al., 2006, CLSI (NCCLS), 26: M7-A7). […] Polymyxin B sulfate (Sigma, USA) and colistin sulfate (Sigma, USA) were used as positive controls. […] The top and bottom rows of each plate were filled with 100 μL of LB broth without compound to avoid edge effects. The last well in each row was treated as a negative control. It contained bacteria but no test compounds. A single colony of each assayed bacterial strain was inoculated into 5 mL of LB broth medium and grown overnight at 37° C. […] Saturated overnight cultures were diluted 5,000-fold in fresh LB, and then 50 μL was transferred into individual wells of a 96-well plate.
In series [4] the test system is A. baumannii ATCC17978 (pMQ124xlab1-mcr-1).
The test system of series [5] is P. aeruginosa PA01. As to conditions: colistin S, n=2.
Series [6] has as its system K. pneumoniae ATCC13883 (pMQ124-mcr-1).
In series [7] the test system is K. pneumoniae 10031. As to conditions: colistin S, n=2.
Series [8] concerns S. aureus SH1000. As to conditions: colistin R, n=2.
Series [9] deals with A. baumannii ATCC17978.
The subject of series [10] is K. pneumoniae ATCC13883. As to conditions: colistin S, mcr-1 engineered pair.
The subject of series [11] is K. pneumoniae 0497 (mcr-1 clinical isolate). As to conditions: colistin R.
In series [12] the test system is E. cloacae 0150. As to conditions: colistin S, n=2.
In series [13] the test system is A. baumannii SM1536 (pMQ124xlab1-mcr-1).
Series [14] relates to A. baumannii SM1536. As to conditions: colistin S.
Series [15] has as its system E. cloacae ATCC13047 (ΔphoP/Q).
Experimental: as §1
For series [16], the system named is A. baumannii 0301.
Series [17] concerns A. baumannii ATCC17978. In words: CHIR-090 inhibition assay (growth curves). In kind it is cell-based, Acinetobacter baumannii. As to conditions: for A. baumannii growth: antibiotic alone at concentrations above MIC; for A. baumannii growth / A. baumannii growth with CHIR-090 included: 48 hours; for A. baumannii growth with CHIR-090 included: antibiotic plus CHIR-090.
The subject of series [18] is K. pneumoniae and A. baumannii. In words: MIC upon addition of cell wall components (lipid A, LPS) to the media. The series is classed as cell-based, Klebsiella pneumoniae; Acinetobacter baumannii. As to conditions: FIG. 3C; n=2.
Series [19] concerns K. pneumoniae and A. baumannii transformed with a plasmid expressing mcr-1. In kind it is cell-based, Klebsiella pneumoniae; Acinetobacter baumannii.
Series [20] concerns Gram−positive pathogens. The experiment in a line: MIC against ESKAPE pathogens. As to conditions: highest concentration tested 128 μg/mL. The series is classed as cell-based.
A short description of series [21]: MTT cytotoxicity assay. As to conditions: HEK293, human cells. The series is classed as cell-based. Here is the method:
Compounds with different concentrations were then added into each well. After 48 h of incubation, the media was removed and MTT solution (0.45 mg/mL) was added into each well. After 3 h of incubation, the solution was aspirated. […] The absorbance of each well was measured at OD570nm using a microplate reader (Epoch Microplate Spectrophotometer, BioTek). Taxol was used as the positive control. […] All the experiments were performed triplicates (n=3).
For orientation: Tetrazolium dyes change colour on reduction, which living cells bring about.

Series [22] concerns A. baumannii 0296. As to conditions: mcr-1 −, colistin S.
The test system of series [23] is A. baumannii 0282. As to conditions: mcr-1 −, colistin S.
The test system of series [24] is A. baumannii 0286. As to conditions: mcr-1 −, colistin S.
In series [25] the test system is A. baumannii 0295. As to conditions: mcr-1 −, colistin S.
Series [26] relates to A. baumannii 0287 with mcr-1. As to conditions: colistin R.
Series [27] relates to A. baumannii 0295 with mcr-1. As to conditions: colistin R.
Series [28] concerns A. baumannii 0301 with mcr-1. As to conditions: colistin R.
Series [29] in a line: Pharmacokinetics assessment. As to conditions: mice; single subcutaneous dose of 10 mg/kg; FIG. 9.
Experimental: (§2) Six-week old CD-1 female mice (20-25 g) were used in pharmacokinetic studies. […] Aliquots of 20 μL of blood were taken by puncture of the lateral tail vein from each mouse (n=2 per route and dose) at 30 minutes, 1, 3, and 5 hours post-dose and captured in CB300 blood collection tubes containing K2EDTA and stored on ice. Plasma was recovered after centrifugation and stored at −80° C. until analyzed by high pressure liquid chromatography coupled to tandem mass spectrometry. […] Standards and QCs were created by adding 10 μL of spiking solutions to 90 μL of drug free plasma (CD-1 K2EDTA Mouse, Bioreclamation IVT). 10 μL of control, standard, QC, or study samples were added to 10 μL of internal standard. […] The compounds were extracted by adding 100 μL of 50% Methanol/50% (10% Trichloroacetic acid in water) precipitation solvent. Extracts were vortexed for 5 minutes and centrifuged at 4,000 rpm for 5 minutes. 75 μL of supernatant was transferred for HPLC-MS/MS analysis and diluted with 75 μL of Milli-Q deionized water. LC-MS/MS analysis was performed on a Sciex Applied Biosystems Qtrap 6500+triple-quadrupole mass spectrometer coupled to a Shimadzu Nexera×2 UHPLC system to quantify each drug in plasma. […] Multiple-reaction monitoring of parent/daughter transitions in electrospray positive-ionization mode was used to quantify the analytes. […]
The test system of series [30] is A. baumannii SM1536-(mcr-1). The experiment in a line: Neutropenic thigh infection model. The series is classed as in vivo, Acinetobacter baumannii. As to conditions: neutropenic mouse thigh, 20 mg/kg SC at 6 hour intervals, 24 h.
Experimental: (§3) After 24 hours the bacterial burden in each infected thigh was determined based on colony forming units (CFUs) that arose from homogenized tissue samples.
(§4) Six-week old female outbred Swiss Webster mice (20-25 g) were used for this experiment. Mice were housed in individually ventilated cages (IVC) and maintained in accordance with American Association for Accreditation of Laboratory Care criteria. Acinetobacter baumannii SM1536-(mcr-1) or A. baumannii-0301-(mcr-1) was grown in cation adjusted Mueller Hinton (MH) broth containing 50 μg/mL of gentamycin at 37° C. with shaking overnight. The cultures were centrifuged, supernatant aspirated and the bacteria were gently washed twice in sterile saline. […] All mice were closely monitored post-infection for morbidity. Any abnormal clinical signs were recorded if observed. […] The treatment efficacy was determined both as the bacterial burden reduction in the thighs relative to the vehicle and colistin treated controls. All graphic data are expressed as columnar average data points by group and were statistically analyzed using computer Prism software (Prism 9). Burden differences between testing and control groups was assessed by post-hoc analysis, using the Mann-Whitney comparison test. […]
The test system of series [31] is A. baumannii-0301-(mcr-1). In words: Neutropenic thigh infection model. As to conditions: neutropenic mouse thigh, 20 mg/kg SC at 6 hour intervals, 24 h. In kind it is in vivo, Acinetobacter baumannii.
Experimental: as §3, §4
In series [32] the test system is A. baumannii 0287. As to conditions: mcr-1 −, colistin S.
For series [33], the system named is Proteus vulgaris.
For series [34] the following is noted: mouse, in vivo, sc, 10 mg/kg.
Experimental: as §2
Series [35] deals with CRAB, as well as a panel of XDR A. baumannii clinical isolates. As to conditions: CRAB and XDR A. baumannii clinical isolates, even when transformed with mcr-1.
Experimental: MIC assays were conducted following the protocol recommended by the Clinical and Laboratory Standards Institute (Testing E C et al., 2016, EUCAST: Växjö; Wikler M A et al., 2006, CLSI (NCCLS), 26: M7-A7). […] Polymyxin B sulfate (Sigma, USA) and colistin sulfate (Sigma, USA) were used as positive controls. […] The top and bottom rows of each plate were filled with 100 μL of LB broth without compound to avoid edge effects. The last well in each row was treated as a negative control. It contained bacteria but no test compounds. A single colony of each assayed bacterial strain was inoculated into 5 mL of LB broth medium and grown overnight at 37° C. (200 rpm). For assays using bacteria containing mcr-1 expression plasmids, the appropriate selection antibiotic was added to keep the plasmid stable (concentrations are listed in Table 5). Saturated overnight cultures were diluted 5,000-fold in fresh LB, and then 50 μL was transferred into individual wells of a 96-well plate.
[36] abbreviates: A. baumannii ATCC17978, colistin S, mcr-1 engineered pair.
Where [37] appears, read: A. baumannii SM1536 (pMQ124xlab1-mcr-1), colistin R.
Where [38] appears, read: extremely highly colistin resistant A. baumannii.

For the compound Polymyxin B, the MIC – broadly, the lowest concentration found to suppress growth – was 16 mg/L in [1]; more than 128 mg/L in series [2]; 32 mg/L in [3]; “resistant” in [3] (listed as polymyxin B); 16 mg/L in series [4]; 2 mg/L in series [5]. Also, the MIC in series [6] was 128 mg/L; in series [7], 1 mg/L; in [8], more than 128 mg/L; in [9], 0.5 mg/L; in [9] (setting [36]), 0.5 mg/L; in series [10] it was 1 mg/L. The MIC is 32 mg/L in [11]; 1 mg/L in series [12]; 128 mg/L in series [13] (setting [37]); 1 mg/L in series [14]; 1 mg/L in series [15].
As for `CC[C@H](C)CCCCC(=O)N[C@@H](CCN)C(=O)N[C@H](C(=O)N[C@H](CO)C(=O)N[C@H]1CCNC(=O)[C@H](CC(C)C)NC(=O)[C@H](CCN)NC(=O)[C@H](CCN)NC(=O)[C@H]([C@@H](C)CC)NC(=O)[C@@H](CC(C)C)NC(=O)[C@H](CCN)NC1=O)[C@@H](C)O` [Macolacin] (X1-[Dab]T[dS][Dab][Dab][dL]I[Dab][Dab]L; lactam 4-C), the “Antibiotic MIC” value in series [16] (0301) amounted to 0.5 mg/L. Besides, the A. baumannii growth result in [17] is listed as “completely abrogated A. baumannii growth”. Moreover, the “A. baumannii growth with CHIR-090 included” value in series [17] is on record as “rescued A. baumannii growth”. Besides, in [18], the “change of MIC on addition of lipid A or lipopolysaccharide (LPS) to the assay media” value is given as “significant increase”. In addition, in series [19], the “increase in MIC upon mcr-1 expression” value is listed as 2- to 4 fold. For the same compound, the values for the MIC in [3], in [4] and in [13] (setting [38]) were 2 mg/L (≈ 1.71 µM), 2 mg/L (≈ 1.71 µM) and 8 mg/L (≈ 6.85 µM), respectively. Moreover, the “activity against Gram−positive pathogens” value in [20] is reported as “no activity”.
For the compound `CC[C@H](C)CCCCC(=O)N[C@@H](CCN)C(=O)N[C@H](C(=O)N[C@@H](CCN)C(=O)N[C@H]1CCNC(=O)[C@H]([C@@H](C)O)NC(=O)[C@H](CCN)NC(=O)[C@H](CCN)NC(=O)[C@H](CC(C)C)NC(=O)[C@@H](CC(C)C)NC(=O)[C@H](CCN)NC1=O)[C@@H](C)O` [Colistin, colistin] (X1-[Dab]T[Dab][Dab][Dab][dL]L[Dab][Dab]T; lactam 4-C), the “Antibiotic MIC” value in [16] (A. baumannii 0301, mcr-1 −, colistin S) stood at 0.25 mg/L; in series [22], 0.25 mg/L; in series [23] it was 0.5 mg/L; in [24], 1 mg/L; in series [25] it was 0.25 mg/L; in series [26], 64 mg/L. For the same compound, the “Antibiotic MIC” value in [27] was more than 128 mg/L; in [28] it was more than 128 mg/L; in [28] (listed as colistin), more than 64 mg/L; in series [32], 0.5 mg/L. Further, the MIC in series [1] was 16 mg/L (≈ 13.7 µM); in series [2], more than 128 mg/L; in series [3], 32 mg/L (≈ 27.4 µM); in series [3] (listed as colistin) it was “resistant”; in series [4] (ATCC17978), 32 mg/L (≈ 27.4 µM); in series [5], 1 mg/L (≈ 0.855 µM). Besides, the MIC in series [6] (ATCC13883) is 64 mg/L (≈ 54.7 µM); in series [7], 0.5 mg/L (≈ 0.428 µM); in [8], more than 128 mg/L; in series [9] (setting [36]) it was 1 mg/L (≈ 0.855 µM); in [10] it was 1 mg/L (≈ 0.855 µM); in [11], 32 mg/L (≈ 27.4 µM). Besides, the MIC was 1 mg/L (≈ 0.855 µM) in series [12]; 128 mg/L (≈ 109 µM) in series [13] (setting [37]); more than 128 mg/L in series [13] (setting [38]); 0.5 mg/L (≈ 0.428 µM) in [14]; 1 mg/L (≈ 0.855 µM) in series [15]. Also, the A. baumannii growth result in [17] is given as “completely abrogated A. baumannii growth”. The “A. baumannii growth with CHIR-090 included” value in series [17] is reported as “rescued A. baumannii growth”. The “change of MIC on addition of lipid A or lipopolysaccharide (LPS) to the assay media” value in [18] is “significant increase”. Moreover, the IC50 (commonly the concentration at which inhibition is half-maximal) at 48 h in series [21] is more than 512 mg/L. Besides, the “plasma drug exposure (pharmacokinetic profile)” value in series [29] is on record as “parity in plasma drug exposure”. In addition, the “bacterial burden in infected thighs” value in series [30] and in series [31] was “did not reduce the bacterial burden below the level of the initial infection” each time.
As to `CC[C@H](C)[C@@H]1NC(=O)[C@@H](CC(C)C)NC(=O)[C@H](CCN)NC(=O)[C@@H](NC(=O)[C@@H](CO)NC(=O)[C@@H](NC(=O)[C@H](CCN)NC(=O)c2ccc(-c3ccccc3)cc2)[C@@H](C)O)CCNC(=O)[C@H](CC(C)C)NC(=O)[C@H](CCN)NC(=O)[C@H](CCN)NC1=O` [Biphenyl-macolacin] ({Benzoyl(4-Ph)}-[Dab]T[dS][Dab][Dab][dL]I[Dab][Dab]L; lactam 4-C), the “Antibiotic MIC” value in series [16] (0301) was 0.5 mg/L; in series [28], 1 mg/L; in series [28] (listed as biphenyl-macolacin), less than 2 mg/L. This compound also gave an MIC in [33] of 4 mg/L (≈ 3.31 µM). In addition, the “plasma drug exposure (pharmacokinetic profile)” value in series [34] is given as “parity in plasma drug exposure”. Moreover, the MICs in series [35] is less than 2 µg/mL.
Take `C[C@@H](O)[C@H](NC(=O)c1ccc(C#Cc2ccc(CN3CCOCC3)cc2)cc1)C(=O)NO` [CHIR-090]: the “A. baumannii growth, CHIR-090 alone” value in series [17] (CHIR-090 alone) is “did not inhibit A. baumannii growth”.
